pIC50: −log10 of the molar value.

One test addresses T1, human NAAA (Homo sapiens, UniProt Q02083).
T1 construct: made in house; host or cells: HEK293 cells, stably transfected; soluble fraction after freeze/thaw
T1 sequence (Q02083 29-359): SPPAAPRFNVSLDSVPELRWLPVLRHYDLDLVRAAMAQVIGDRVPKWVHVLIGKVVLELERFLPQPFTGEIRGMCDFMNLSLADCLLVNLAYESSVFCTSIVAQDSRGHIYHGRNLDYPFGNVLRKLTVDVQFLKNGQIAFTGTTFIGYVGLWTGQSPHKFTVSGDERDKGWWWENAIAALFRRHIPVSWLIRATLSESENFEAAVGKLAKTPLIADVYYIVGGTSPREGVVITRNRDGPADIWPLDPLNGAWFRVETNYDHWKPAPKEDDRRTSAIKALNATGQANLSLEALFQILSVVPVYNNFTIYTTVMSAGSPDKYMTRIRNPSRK
As to the kind of experiment: Fluorogenic h-NAAA assay. Type of test: biochemical. Particulars: recombinant HEK-hNAAA preparation. The method, then: Hek293 cells stably transfected with the human NAAA coding sequence cloned from a human spleen cDNA library were used as enzyme source. Recombinant HEK-hNAAA pellets were resuspended in homogenizing buffer, and sonicated. Samples were centrifuged at 800×g for 15 min at 4° C. and the supernatants were ultracentrifuged at 12,000×g for 30 min at 4° C. The pellets were resuspended in PBS pH 7.4 on ice and subjected to a freeze/thaw cycle at −80° C. (two freeze/thaw cycles at −80° C. for Examples 34-37). The suspension was finally centrifuged at 105,000×g for 1 h at 4° C. Protein concentration was measured and samples stored at −80° C. until use.
The assay was run in Optiplate 96-wells black plates, in a total reaction volume of 200 μL. NAAA protein preparation (4.0 μg for Examples except 34-37, which were 20.0 μg) was pre-incubated for 10 min with various concentrations of test compounds or vehicle control (5% DMSO) in 100 mM citrate/phosphate buffer (pH 4.5) containing 3.0 mM DTT, 0.1% Triton X-100, 0.05% BSA, 150 mM NaCl. N-(4-methyl-2-oxo-chromen-7-yl)-hexadecanamide was used as a substrate (5.0 μM) and the reaction carried over for 30 min at 37° C. The samples were then read in a Perkin Elmer Envision plate reader using an excitation wavelength of 360 nm and emission 460 nm. IC50 values were calculated by non-linear regression analysis of log [concentration]/inhibition curves using GraphPad Prism 5 (GraphPad Software Inc., CA—USA) applying a standard slope curve fitting.

Test [1] has as its system carrageenan-induced paw edema and heat hyperalgesia. Kind of test: Carrageenan-induced inflammation (paw edema, heat hyperalgesia). The format is in vivo. The following applies: mice, intraperitoneal, 10-100 mg/kg. (Carrageenan injected into the paw causes an acute inflammation.)

As to `O=C(CCCCCCc1ccccc1)N[C@H]1CNC1=O` [Example 7, 7-Phenyl-N-[(3S)-2-Oxoazetidin-3-yl]-heptanamide], the pIC50 on human NAAA was 6.48.
`CCCCCCCCC(=O)N[C@H]1CNC1=O` [Example 3, N-[(3S)-2-Oxoazetidin-3-yl]-nonanamide]: the paw edema result in test [1] (FIG. 1 A) was “reduced”. The heat hyperalgesia entry in test [1] (FIG. 1 B) was “reduced”. Moreover, the pIC50 on human NAAA is 6.97.

Usually pIC50 stands for −log10 of the IC50, conventionally taken in molar units.

The values above are taken from patent US9908848B2, “Amide derivatives of lactam based N-acylethanolamine acid amidase (NAAA) inhibitors” (The Regents of the University of California, priority 2013, dated 2018).
